For one experiment, the target named is wtERBB2 (Homo sapiens (Human), UniProt P04626). Briefly: HotSpot radiometric kinase activity assay, wtERBB2. Type of experiment: biochemical. The note with it: 30 nM wtERBB2, 10 μM 33P-ATP, 20 min preincubation, 2 hours, read-out: HER2 WT IC50. The method, then: The purpose of the wtERBB2, ERBB2-A775_G776insYVMA (ERBB2YVMA), wtEGFR biochemical assay was to evaluate the inhibition (% inhibition and IC50 values) of the small molecule inhibitors by using the “HotSpot” radiometric kinase activity assay. HotSpot assays monitor the […] of kinase substrate by the radioactive gamma phosphate of adenosine triphosphate (33P-ATP) during biochemical reactions. HotSpot assays was performed in steps upon completion of the kinase reaction: deposition of a reaction mixture aliquot onto P81 ion exchange paper, extensive washing of the aforementioned P81 paper using phosphoric acid to remove unbound radiolabeled 33P-ATP from the P81 paper, and finally visualization and quantification of the dried P81 paper utilizing a phosphoimager. […] Typical reaction solutions (10 μL final reaction volume) contained the following buffer conditions: 20 mM Hepes (pH 7.5), 10 mM MgCl2, 1 mM EGTA, 0.01% Brij35, 0.02 mg/mL BSA, 0.1 mM Na3VO4, 2 mM DTT, 1% DMSO. The assay was primed by preparing a fresh 0.2 mg/mL solution of pEY (Sigma Cat: P7244) substrate in the reaction buffer and supplementing that solution with […] of MnCl2 as substrate cofactor (Sigma Cat: M9522). The kinase of interest was then added to the solution at the appropriate concentration (30 nM wtERBB2 from, or 20 nM ERBB2YVMA, or 4 nM wtEGFR) and gently mixed prior to delivery of compound in 100% DMSO by acoustic dispensing (Beckman Echo550). Compound, Kinase, and substrate were allowed to incubate for 20 min at room temperature prior to the initiation of the reaction by addition of 33P-ATP (PerkinElmer Cat: NEG602, final conc 10 μM). […] IC50 determinations were made from a plot of kinase activity as a function of inhibitor concentration fit to the 4-parameter IC50 equation with the enzyme concentration held constant using GraphPad Prism (San Diego).

The test system of a further experiment is BaF3_HER2YVMA cells. Put plainly: Cell growth inhibition assay, BaF3_HER2YVMA. It counts as cell-based. The following applies: 72 h, BaF3_HER2YVMA cells, 3 days treatment, CellTiterGlo 2.0; read-out: HER2-YVMA IC50 (nM), cell growth inhibition.
The subject of the next experiment is BaF3_HER2WT cells. Briefly: Cell growth inhibition assay, BaF3_HER2WT. It counts as cell-based. The following applies: 72 h, 3 days treatment, CellTiterGlo 2.0, read-out: HER2 WT IC50 (nM), cell growth inhibition.
Another experiment concerns BaF3_EGFRWT cells. Briefly: Cell growth inhibition assay, BaF3_EGFRWT. Type of experiment: cell-based. The note with it: 72 h, 80 ng/mL recombinant human EGF, 3 days treatment, CellTiterGlo 2.0, read-out: EGFR WT IC50 (nM), cell growth inhibition. (In ATP-based viability assays light output follows the ATP content of the culture.)

Structures are written as SMILES.

Chain of wtERBB2 (P04626 23-1255): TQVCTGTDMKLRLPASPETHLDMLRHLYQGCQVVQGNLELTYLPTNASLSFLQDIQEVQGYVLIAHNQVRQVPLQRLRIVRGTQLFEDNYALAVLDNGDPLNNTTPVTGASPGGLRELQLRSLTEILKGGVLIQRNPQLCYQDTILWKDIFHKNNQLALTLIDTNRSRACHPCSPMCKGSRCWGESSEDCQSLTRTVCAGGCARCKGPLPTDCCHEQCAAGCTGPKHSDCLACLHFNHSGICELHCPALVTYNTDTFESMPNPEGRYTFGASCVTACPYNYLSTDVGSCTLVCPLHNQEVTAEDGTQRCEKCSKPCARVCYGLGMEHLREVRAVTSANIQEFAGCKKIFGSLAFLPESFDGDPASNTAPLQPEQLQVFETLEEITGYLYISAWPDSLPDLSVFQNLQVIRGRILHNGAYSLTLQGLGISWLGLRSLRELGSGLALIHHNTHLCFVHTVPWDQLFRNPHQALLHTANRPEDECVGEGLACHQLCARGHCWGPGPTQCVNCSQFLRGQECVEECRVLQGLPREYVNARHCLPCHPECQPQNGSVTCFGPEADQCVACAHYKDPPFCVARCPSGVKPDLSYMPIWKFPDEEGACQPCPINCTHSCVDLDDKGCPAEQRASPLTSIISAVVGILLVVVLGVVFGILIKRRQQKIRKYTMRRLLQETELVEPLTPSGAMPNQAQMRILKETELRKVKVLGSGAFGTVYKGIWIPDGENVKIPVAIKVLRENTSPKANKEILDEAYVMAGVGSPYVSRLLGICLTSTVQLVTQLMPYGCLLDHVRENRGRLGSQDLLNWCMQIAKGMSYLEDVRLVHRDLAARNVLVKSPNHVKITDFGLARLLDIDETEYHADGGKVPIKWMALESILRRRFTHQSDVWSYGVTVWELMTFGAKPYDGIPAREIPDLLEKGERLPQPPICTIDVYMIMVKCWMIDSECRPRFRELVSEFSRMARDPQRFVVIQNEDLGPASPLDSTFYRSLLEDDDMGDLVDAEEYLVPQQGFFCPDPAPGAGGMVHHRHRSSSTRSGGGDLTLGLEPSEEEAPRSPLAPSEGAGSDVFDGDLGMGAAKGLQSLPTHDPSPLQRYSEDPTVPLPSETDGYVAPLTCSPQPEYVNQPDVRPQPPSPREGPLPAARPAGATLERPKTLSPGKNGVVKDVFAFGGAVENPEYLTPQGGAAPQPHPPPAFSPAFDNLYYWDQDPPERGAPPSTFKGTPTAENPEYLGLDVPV

As to `Cc1cc(Nc2ncnn3ccc([C@@H]4CCCN(C(=O)/C=C/CN(C)C)C4)c23)ccc1Oc1ccn2ncnc2c1` (single isomer, unassigned) [Example 107], the IC50 (usually the concentration that gives 50% inhibition) at wtERBB2 is below 200 nM.
Consider `C=CC(=O)NC1CCN(C(=O)c2ccn3ncnc(Nc4ccc(Oc5ccn6ncnc6c5)c(C)c4)c23)CC1` [Example 5, N-(1-(4-((4-([1,2,4]triazolo[1,5-a]pyridin-7-yloxy)-3-methylphenyl)amino)pyrrolo[2,1-f][1,2,4]triazine-5-carbonyl)piperidin-4-yl)acrylamide], for which the concentration for half-maximal inhibition (IC50) in the experiment on BaF3_HER2YVMA cells is 200 to 500 nM; in the experiment with BaF3_HER2WT cells it was below 200 nM; on wtERBB2, below 200 nM; with BaF3_EGFRWT cells it was 1500 to 5000 nM.
For the compound `C=CC(=O)N1CCC(c2ccn3ncnc(Nc4ccc(Oc5ccn6ncnc6c5)c(C)c4)c23)C1` (stereo not shown) [Example 11, 1-(3-(4-((4-([1,2,4]triazolo[1,5-a]pyridin-7-yloxy)-3-methylphenyl)amino)pyrrolo[2,1-f][1,2,4]triazin-5-yl)pyrrolidin-1-yl)prop-2-en-1-one], the IC50 was below 200 nM in the experiment on BaF3_HER2YVMA cells, below 200 nM with BaF3_HER2WT cells, below 200 nM at wtERBB2 and 1500 to 5000 nM with BaF3_EGFRWT cells.
`C=CC(=O)NCCn1cc(-c2ccn3ncnc(Nc4ccc(Oc5ccn6ncnc6c5)c(C)c4)c23)cn1` [Example 13, N-(2-(4-(4-((4-([1,2,4]triazolo[1,5-a]pyridin-7-yloxy)-3-methylphenyl)amino)pyrrolo[2,1-f][1,2,4]triazin-5-yl)-1H-pyrazol-1-yl)ethyl)acrylamide]: the IC50 in the experiment with BaF3_HER2YVMA cells is 200 to 500 nM; with BaF3_HER2WT cells, below 200 nM; on wtERBB2, below 200 nM; with BaF3_EGFRWT cells it was 1500 to 5000 nM.
For the compound `C=CC(=O)NC1CN(c2ccn3ncnc(Nc4ccc(Oc5ccn6ncnc6c5)c(C)c4)c23)C1` [Example 14, N-(1-(4-((4-([1,2,4]triazolo[1,5-a]pyridin-7-yloxy)-3-methylphenyl)amino)pyrrolo[2,1-f][1,2,4]triazin-5-yl)azetidin-3-yl)acrylamide], the IC50 is below 200 nM with BaF3_HER2YVMA cells, below 200 nM in the experiment with BaF3_HER2WT cells, below 200 nM at wtERBB2 and 1500 to 5000 nM in the experiment with BaF3_EGFRWT cells.
In the case of `C=CC(=O)N1CC2(C1)CN(c1ccn3ncnc(Nc4ccc(Oc5ccn6ncnc6c5)c(C)c4)c13)C2` [Example 16, 1-(6-(4-((4-([1,2,4]triazolo[1,5-a]pyridin-7-yloxy)-3-methylphenyl)amino)pyrrolo[2,1-f][1,2,4]triazin-5-yl)-2,6-diazaspiro[3.3]heptan-2-yl)prop-2-en-1-one], the IC50 is 500 to 1500 nM with BaF3_HER2YVMA cells, 200 to 500 nM in the experiment on BaF3_HER2WT cells, below 200 nM at wtERBB2 and 1500 to 5000 nM in the experiment with BaF3_EGFRWT cells.
The like results for `C=C(F)C(=O)NC1CN(c2ccn3ncnc(Nc4ccc(Oc5ccn6ncnc6c5)c(C)c4)c23)C1` [Example 18, N-(1-(4-((4-([1,2,4]triazolo[1,5-a]pyridin-7-yloxy)-3-methylphenyl)amino)pyrrolo[2,1-f][1,2,4]triazin-5-yl)azetidin-3-yl)-2-fluoroacrylamide] were, in that order, 500 to 1500 nM, 200 to 500 nM, below 200 nM and 1500 to 5000 nM.
Turning to `C=C(F)C(=O)N1CC(n2cc(-c3ccn4ncnc(Nc5ccc(Oc6ccn7ncnc7c6)c(C)c5)c34)cn2)C1` [Example 19, 1-(3-(4-(4-((4-([1,2,4]triazolo[1,5-a]pyridin-7-yloxy)-3-methylphenyl)amino)pyrrolo[2,1-f][1,2,4]triazin-5-yl)-1H-pyrazol-1-yl)azetidin-1-yl)-2-fluoroprop-2-en-1-one], the half-inhibitory concentration (IC50) with BaF3_HER2YVMA cells is 500 to 1500 nM; in the experiment on BaF3_HER2WT cells, 200 to 500 nM; on wtERBB2, below 200 nM; in the experiment on BaF3_EGFRWT cells, 1500 to 5000 nM.
The like results for `Cc1cc(Nc2ncnn3ccc(N4CCN(C(=O)/C=C/CN(C)C)CC4)c23)ccc1Oc1ccn2ncnc2c1` [Example 22, (E)-1-(4-(4-((4-([1,2,4]triazolo[1,5-a]pyridin-7-yloxy)-3-methylphenyl)amino)pyrrolo[2,1-f][1,2,4]triazin-5-yl)piperazin-1-yl)-4-(dimethylamino)but-2-en-1-one] were, in that order, below 200 nM, below 200 nM, below 200 nM and 1500 to 5000 nM.
For `Cc1cc(Nc2ncnn3ccc(C4CCN(C(=O)CCCN(C)C)CC4)c23)ccc1Oc1ccn2ncnc2c1` [Example 23, 1-(4-(4-((4-([1,2,4]triazolo[1,5-a]pyridin-7-yloxy)-3-methylphenyl)amino)pyrrolo[2,1-f][1,2,4]triazin-5-yl)piperidin-1-yl)-4-(dimethylamino)butan-1-one] the same measures were 1500 to 5000 nM, 500 to 1500 nM, below 200 nM and 1500 to 5000 nM.
Take `Cc1cc(Nc2ncnn3ccc(C4CN(C(=O)/C=C/CN)C4)c23)ccc1Oc1ccn2ncnc2c1` [Example 87, (E)-1-(3-(4-((4-([1,2,4]triazolo[1,5-a]pyridin-7-yloxy)-3-methylphenyl)amino)pyrrolo[2,1-f][1,2,4]triazin-5-yl)azetidin-1-yl)-4-aminobut-2-en-1-one]: the IC50 in the experiment with BaF3_HER2YVMA cells was 1500 to 5000 nM; in the experiment on BaF3_HER2WT cells it was 1500 to 5000 nM; on wtERBB2, below 200 nM; in the experiment with BaF3_EGFRWT cells, 1500 to 5000 nM.
For `Cc1cc(Nc2ncnn3ccc(C4CN(C(=O)/C=C/CN5CC(F)(F)C5)C4)c23)ccc1Oc1ccn2ncnc2c1` [Example 91, (E)-1-(3-(4-((4-([1,2,4]triazolo[1,5-a]pyridin-7-yloxy)-3-methylphenyl)amino)pyrrolo[2,1-f][1,2,4]-triazin-5-yl)azetidin-1-yl)-4-(3,3-difluoroazetidin-1-yl)but-2-en-1-one], the 50% inhibitory concentration (IC50) with BaF3_HER2YVMA cells was 500 to 1500 nM; in the experiment on BaF3_HER2WT cells it was below 200 nM; at wtERBB2 it was below 200 nM; in the experiment with BaF3_EGFRWT cells it was 1500 to 5000 nM.
With `Cc1cc(Nc2ncnn3ccc(C4CCCN(C(=O)/C=C/CN(C)C)CC4)c23)ccc1Oc1ccn2ncnc2c1` (stereo not shown) [Example 93, (E)-1-(4-(4-((4-([1,2,4]triazolo[1,5-a]pyridin-7-yloxy)-3-methylphenyl)amino)pyrrolo[2,1-f][1,2,4]triazin-5-yl)azepan-1-yl)-4-(dimethylamino)but-2-en-1-one], the IC50 is below 200 nM in the experiment with BaF3_HER2YVMA cells, below 200 nM in the experiment with BaF3_HER2WT cells, below 200 nM at wtERBB2 and 1500 to 5000 nM in the experiment on BaF3_EGFRWT cells.
Consider `Cc1cc(Nc2ncnn3ccc([C@H]4CCN(C(=O)/C=C/CN(C)C)C4)c23)ccc1Oc1ccn2ncnc2c1` [Example 100, (R,E)-1-(3-(4-((4-([1,2,4]triazolo[1,5-a]pyridin-7-yloxy)-3-methylphenyl)amino)-pyrrolo[2,1-f]1,2,4-triazin-5-yl)pyrrolidin-1-yl)-4-(dimethylamino)but-2-en-1-one], for which the IC50 at wtERBB2 was below 200 nM.
The same measure, in the same setting: the same measure for `Cc1cc(Nc2ncnn3ccc([C@H]4CCCN(C(=O)/C=C/CN(C)C)C4)c23)ccc1Oc1ccn2ncnc2c1` [Example 108, (R,E)-1-(3-(4-((4-([1,2,4]triazolo[1,5-a]pyridin-7-yloxy)-3-methylphenyl)amino)-pyrrolo[2,1-f][1,2,4]-triazin-5-yl)piperidin-1-yl)-4-(dimethylamino)but-2-en-1-one]: below 200 nM; for `Cc1cc(Nc2ncnn3ccc([C@H]4CCCN(C(=O)/C=C/CN(C)C)CC4)c23)ccc1Oc1ccn2ncnc2c1` [Example 110, (S,E)-1-(4-(4-((4-([1,2,4]triazolo[1,5-a]pyridin-7-yloxy)-3-methylphenyl)amino)pyrrolo[2,1-f][1,2,4]triazin-5-yl)azepan-1-yl)-4-(dimethylamino)but-2-en-1-one]: below 200 nM.
Consider `CNC/C=C/C(=O)N1CCC(c2ccn3ncnc(Nc4ccc(Oc5ccn6ncnc6c5)c(C)c4)c23)CC1` [Example 177, (E)-1-(4-(4-((4-([1,2,4]triazolo[1,5-a]pyridin-7-yloxy)-3-methylphenyl)amino)pyrrolo[2,1-f][1,2,4]triazin-5-yl)piperidin-1-yl)-4-(methylamino)but-2-en-1-one], for which the results for the IC50 in the experiment on BaF3_HER2YVMA cells, in the experiment on BaF3_HER2WT cells and with BaF3_EGFRWT cells were below 200 nM, below 200 nM and 1500 to 5000 nM, respectively.
As for `Cc1cc(Nc2ncnn3ccc(C(=O)NCCCN(C)C)c23)ccc1N` [Example 181, 4-((4-amino-3-methylphenyl)amino)-N-(3-(dimethylamino)propyl)pyrrolo[2,1-f][1,2,4]triazine-5-carboxamide], the values for the IC50 in the experiment with BaF3_HER2YVMA cells, in the experiment with BaF3_HER2WT cells and in the experiment on BaF3_EGFRWT cells were above 5000 nM, 1500 to 5000 nM and above 5000 nM, respectively.

For the origin of these results see patent US20250276983A1, “COMPOUNDS AND METHODS FOR MODULATING HER2” (IAMBIC THERAPEUTICS, INC., priority 2022, published 2025).
